Patent US6027875A, “Receptor infection assay” (The Salk Institute for Biological Studies, priority 1991, dated 2000)
Read-outs that look alike come from different tables or passages of the source. Values belong to the compound of their own block, whether it stands above or below them.

Assays:
[1] = target: T1, human glucocorticoid receptor (GR) (Homo sapiens, UniProt P04150); experiment: Functional assay with recombinant receptor (hGR4) and reporter (MLUC3) viruses in 293 cells, luciferase activity; details: 22 hours after infection; for Luciferase response to dex mimicked by other adrenocorticosteroids: hGR4 + MLUC3 coinfected 293 cells
T1 sequence (P04150 1-777): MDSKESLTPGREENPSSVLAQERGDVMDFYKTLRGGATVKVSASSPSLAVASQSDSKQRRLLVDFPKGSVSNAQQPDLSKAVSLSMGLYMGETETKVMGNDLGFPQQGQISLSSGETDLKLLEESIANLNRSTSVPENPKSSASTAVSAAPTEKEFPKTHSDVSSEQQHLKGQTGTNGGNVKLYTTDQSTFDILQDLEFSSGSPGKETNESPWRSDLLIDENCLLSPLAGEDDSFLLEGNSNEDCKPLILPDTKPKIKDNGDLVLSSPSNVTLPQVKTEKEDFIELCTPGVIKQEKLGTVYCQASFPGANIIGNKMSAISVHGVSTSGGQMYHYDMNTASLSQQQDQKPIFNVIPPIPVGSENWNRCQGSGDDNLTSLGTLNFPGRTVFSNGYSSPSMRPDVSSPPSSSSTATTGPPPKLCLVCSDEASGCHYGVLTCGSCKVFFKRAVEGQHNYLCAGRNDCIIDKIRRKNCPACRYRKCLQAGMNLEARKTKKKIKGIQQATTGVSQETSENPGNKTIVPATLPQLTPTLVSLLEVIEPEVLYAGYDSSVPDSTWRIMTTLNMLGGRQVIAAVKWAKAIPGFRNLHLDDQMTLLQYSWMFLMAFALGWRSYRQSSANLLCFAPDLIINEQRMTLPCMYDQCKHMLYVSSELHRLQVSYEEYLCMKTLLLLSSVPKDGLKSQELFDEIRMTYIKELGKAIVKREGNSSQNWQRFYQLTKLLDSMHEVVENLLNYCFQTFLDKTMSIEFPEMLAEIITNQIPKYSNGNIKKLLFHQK
Text: A reporter virus (MLUC3; also variously referred to as Ad3MLUC, MpCV3MTV-LUC-Ad and ADMLUC) was constructed containing the mouse mammary tumor virus LTR linked to the firefly luciferase cDNA with an SV40 polyadenylation signal (Hollenberg, et al., Cell 55, 899 (1988)) similar to the receptor virus hGR4 above. The two viruses, hGR4 and MLUC3, were coinfected into 293 cells growing in DMEM suplemented with 10% charcoal adsorbed fetal calf serum ±10^-7 M dexamethasone (dex), and cellular extracts were prepared by Triton X-100™ brand non-ionic surfactant lysis at 22 hours after infection. (Williams, et al., Anal. Biochem 176, 28 (1989)) These were tested for luciferase activity by incubating with ATP and luciferin in a suitable buffer system. (de Wet, et al., Mol. Cell Biol. 7, 725 (1987)). Light liberated in this reaction was measured using a luminometer.

[2] = target: T1, human glucocorticoid receptor (GR); details: 293 cell lysate, 20 µL/200 µL assayed
Protocol: The coinfection assay was carried out in the following manner. Twelve well dishes were seeded with 293 cells at a density of 1.2×10^5 cells per well and grown in Dulbecco's modified Eagle's medium (DME) supplemented with 10% fetal calf serum. Assuming that the hGR4, MLUC3, and dl 309 virus stocks were 10^8 PFU/ml, the next day cells were infected with various combinations of these stocks in triplicate at a multiplicity of infection corresponding to 50. Dexamethasone dissolved in 50% ethanol or the control vehicle alone were each diluted into DME supplemented with 10% charcoal-adsorbed fetal calf serum at a final concentration of 0.1 μM. These mixtures were added to cells adsorbed with virus for thirty minutes. Cells were harvested at 18, 22 and 89 hours after infection by scraping them from the plate and washing the cell pellets in phosphate-buffered saline, and resuspending them in 100 microliters of 100 mM K2 HPO4 (pH 7.8), 1 mM dithiothreitol). Cell lysates were prepared by three cycles of sequential freezing and thawing in a dry ice/ethanol and 37° C. baths. Cell debris was pelleted by centrifugation in a microcentrifuge for 5 minutes at 4° C. […] Luciferase enzyme activity was assayed by automatic injection of 1 mM d-luciferin (Analytical Luminescence Laboratories) as described in de Wet et al. Mol. Cell. Biol. 7, 725 (1987) using a Berthold luminometer.
The orientation is reversed relative to the major late promoter with the RSV long term repeat promoter driving the expression of the human glucocorticoid receptor DNA terminating with SV40 polyadenylation sequence. This orientation removes the tripartite leader from functioning in its usual manner. A separate vector for the receptor DNA is constructed similarly. The two vectors are separately used to infect 293 cells. First, 293 cells are infected with the vector bearing the human glucocorticoid receptor DNA. Successful infection can be tested by picking plaques and doing a Western analysis with human glucocorticoid receptor antibodies or one can measure the ligand binding properties of the extracts or one can do a restriction map analysis to assure proper infection with the human glucocoid receptor adenovirus DNA. Successfully infected cells are then infected with the reporter virus vector. Alternatively, both vectors could be mixed on, for example, 293 cells. Where host cells not bearing a complement of the adenovirus genome are used, one may coinfect with wild-type virus in order to supply the missing complement. […] The material to be tested may either be added in at the beginning or at such twenty-two hour period. The cells are then tested for measurement of the reporter activity. In the case of the exemplified luciferase gene, that measurement takes the form of quantitating light emission from luciferin oxidized by any luciferase present.

[3] = target: T1, human glucocorticoid receptor (GR); experiment: Detection of glucocorticoids: cells infected with hGR4 and MLUC3, luciferase activity; format: cell-based; set-up: expressed in transfected cells; host or cells: 293 cells (human embryonic kidney) infected with recombinant adenovirus hGR4 and reporter virus MLUC3; A3: 293 or CV-1 cells; details: 10^-8 M cortisol, 18 hours p.i., read-out: Share of the maximal transcriptional response
Protocol: Cells were infected with hGR4 and MLUC3 recombinant adenoviruses in the presence of varying concentrations of cortisol from 10^-11 M to 10^-5 M in 3-fold dilution steps. At 18 hours p.i., lysates were prepared and luciferase activity was measured. Approximately 10% of the maximal transcriptional response was detected at 10^-8 M cortisol. Since standard assay volumes are 200 μl per well in a 96 sample microliter dish, this represents about 2×10^-12 mole or about 0.6 ng of cortisol.

[4] = target: T1, human glucocorticoid receptor (GR); experiment: Luciferase-based coinfection assay with unpurified virus stocks in 293 or CV-1 cells; set-up: expressed in transfected cells; host or cells: 293 cells (human embryonic kidney) infected with recombinant adenovirus hGR4 and reporter virus MLUC3; A3: 293 or CV-1 cells; details: 293 or CV-1 cells infected with both stocks, ten PFU/cell; lysates at twenty-two hours after infection
Text: With the unpurified virus stocks, their ability to measure hormone-responsiveness was accomplished using various adrenocorticosteroid, in the luciferase based assay. Assuming that the titer of the viral stocks was approximately 10^8 PFU/ML, either 293 cells or CV-1 cells that have low endogenous GR levels were infected with both stocks at a multiplicity of infection equal to ten PFU/cell. At twenty-two hours after infection (empirically determined to be the time when maximal GR synthesis occurs by Western blot measurement of protein), cell lysates were prepared and tested for luciferase activity.
Within the concentration range of 10^-10 and 10^-5 M of corticosteroids, dose response curves were generated that appeared by all qualitative criteria to resemble the binding activities of those glucocorticoids for the receptor protein.

Compound: C[C@]12C[C@H](O)[C@H]3[C@@H](CCC4=CC(=O)CC[C@@]43C)[C@@H]1CC[C@@H]2C(=O)CO [corticosterone]
Luciferase response to dex mimicked by other adrenocorticosteroids [1]: mimicked

Additional enhancement of the luciferase response by coinfection with hGR4 ([1]; MLUC3 + hGR4 (not with parental dl 309), 10^-7 M dex, 293 cells, 0.1 µM): 5 fold
Stimulation of luciferase activity ([1]; MLUC3 alone, 10^-7 M dex, 293 cells, 0.1 µM): 10 fold
Response of cell lysate (luciferase activity), with CV ([2]; co-infection HGR + DL309, 18 HRS after co-infection, DEX 3 × 10^-9): 35 (28%)
Response of cell lysate (luciferase activity), with CV ([2]; co-infection HGR + DL309, 18 HRS after co-infection, DEX 10^-7 M): 33
Response of cell lysate (luciferase activity), with CV ([2]; co-infection HGR + DL309, 22 HRS after co-infection, DEX 3 × 10^-9): 40 (19%)
Response of cell lysate (luciferase activity), with CV ([2]; co-infection HGR + DL309, 22 HRS after co-infection, DEX 10^-7 M): 42 (38%)
Response of cell lysate (luciferase activity), with CV ([2]; co-infection HGR + DL309, 89 HR after co-infection, DEX 3 × 10^-9): 22 (14%)
Response of cell lysate (luciferase activity), with CV ([2]; co-infection HGR + DL309, 89 HR after co-infection, DEX 10^-7 M): 27 (4%)
Response of cell lysate (luciferase activity), with CV ([2]; co-infection HGR + MTV-LUC, 18 HRS after co-infection, DEX 3 × 10^-9): 30015
Response of cell lysate (luciferase activity), with CV ([2]; co-infection HGR + MTV-LUC, 18 HRS after co-infection, DEX 10^-7 M): 72864
Response of cell lysate (luciferase activity), with CV ([2]; co-infection HGR + MTV-LUC, 22 HRS after co-infection, DEX 3 × 10^-9): 48858 (14%)
Response of cell lysate (luciferase activity), with CV ([2]; co-infection HGR + MTV-LUC, 22 HRS after co-infection, DEX 10^-7 M): 90718 (18%)
Response of cell lysate (luciferase activity), with CV ([2]; co-infection HGR + MTV-LUC, 89 HR after co-infection, DEX 3 × 10^-9): 1246 (68%)
Response of cell lysate (luciferase activity), with CV ([2]; co-infection HGR + MTV-LUC, 89 HR after co-infection, DEX 10^-7 M): 1065 (7%)
Response of cell lysate (luciferase activity), with CV ([2]; co-infection MTV-LUC + DL309, 18 HRS after co-infection, DEX 3 × 10^-9): 3643 (20%)
Response of cell lysate (luciferase activity), with CV ([2]; co-infection MTV-LUC + DL309, 18 HRS after co-infection, DEX 10^-7 M): 19130
Response of cell lysate (luciferase activity), with CV ([2]; co-infection MTV-LUC + DL309, 22 HRS after co-infection, DEX 3 × 10^-9): 5095 (12%)
Response of cell lysate (luciferase activity), with CV ([2]; co-infection MTV-LUC + DL309, 22 HRS after co-infection, DEX 10^-7 M): 24215 (4%)
Response of cell lysate (luciferase activity), with CV ([2]; co-infection MTV-LUC + DL309, 89 HR after co-infection, DEX 3 × 10^-9): 53 (48%)
Response of cell lysate (luciferase activity), with CV ([2]; co-infection MTV-LUC + DL309, 89 HR after co-infection, DEX 10^-7 M): 151 (23%)
Response of cell lysate (luciferase activity), with CV ([2]; infection DL309 only, 18 HRS after co-infection, DEX 3 × 10^-9): 28 (5%)
Response of cell lysate (luciferase activity), with CV ([2]; infection DL309 only, 18 HRS after co-infection, DEX 10^-7 M): 32
Response of cell lysate (luciferase activity), with CV ([2]; infection DL309 only, 22 HRS after co-infection, DEX 3 × 10^-9): 42 (22%)
Response of cell lysate (luciferase activity), with CV ([2]; infection DL309 only, 22 HRS after co-infection, DEX 10^-7 M): 43 (11%)
Response of cell lysate (luciferase activity), with CV ([2]; infection DL309 only, 89 HR after co-infection, DEX 3 × 10^-9): 22 (24%)
Response of cell lysate (luciferase activity), with CV ([2]; infection DL309 only, 89 HR after co-infection, DEX 10^-7 M): 23 (7%)
Compound: C[C@@H]1C[C@H]2[C@@H]3CCC4=CC(=O)C=C[C@]4(C)[C@@]3(F)[C@@H](O)C[C@]2(C)[C@@]1(O)C(=O)CO [DEX, Dexamethasone]

Compound: C[C@]12CCC(=O)C=C1CC[C@@H]1[C@@H]2[C@@H](O)C[C@]2(C=O)[C@@H](C(=O)CO)CC[C@@H]12 [aldosterone]
Luciferase response to dex mimicked by other adrenocorticosteroids [1]: mimicked

activation at 0.01 µM [3]: ~10%
Luciferase response to dex mimicked by other adrenocorticosteroids [1]: mimicked
Compound: C[C@]12CCC(=O)C=C1CC[C@@H]1[C@@H]2[C@@H](O)C[C@@]2(C)[C@H]1CC[C@]2(O)C(=O)CO [cortisol]

Compound: CC1=C(/C=C/C(C)=C/C=C/C(C)=C/C(=O)O)C(C)(C)CCC1 [retinoic acid]
Induction of luciferase activity (inducer in this system) [4]: ineffective inducers

Compound: estrogen
Induction of luciferase activity (inducer in this system) [4]: ineffective inducers
Luciferase response to dex mimicked by other adrenocorticosteroids [1]: mimicked
